Common to all, as to assay type: biochemical
Test [1] concerns the target T1, DYRK2 (Homo sapiens, UniProt Q92630).
T1 construct: purchased Carna Biosciences, Inc. 04-132
T1 sequence (Q92630 1-601): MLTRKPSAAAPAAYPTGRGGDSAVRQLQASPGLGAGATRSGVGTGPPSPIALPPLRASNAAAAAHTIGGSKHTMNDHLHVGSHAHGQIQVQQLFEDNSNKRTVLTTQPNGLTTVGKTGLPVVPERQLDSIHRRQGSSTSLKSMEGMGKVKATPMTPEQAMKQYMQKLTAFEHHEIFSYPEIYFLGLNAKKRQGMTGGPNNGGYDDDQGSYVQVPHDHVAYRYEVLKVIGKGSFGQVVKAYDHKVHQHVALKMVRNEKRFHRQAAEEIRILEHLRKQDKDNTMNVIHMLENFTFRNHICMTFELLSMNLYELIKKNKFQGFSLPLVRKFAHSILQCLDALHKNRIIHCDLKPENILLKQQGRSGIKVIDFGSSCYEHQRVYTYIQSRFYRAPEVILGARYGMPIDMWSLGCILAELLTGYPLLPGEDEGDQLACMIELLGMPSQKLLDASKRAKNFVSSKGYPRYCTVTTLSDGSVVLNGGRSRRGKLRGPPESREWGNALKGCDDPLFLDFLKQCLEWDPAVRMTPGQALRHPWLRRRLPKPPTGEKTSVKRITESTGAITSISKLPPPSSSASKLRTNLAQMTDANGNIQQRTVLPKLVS
As to the kind of experiment: Inhibition test on activity of DYRK family, mobility shift assay (MSA), DYRK2. Conditions: ATP 40 μM, FITC-labeled DYRKtide peptide substrate, room temperature 1 hour; for IC50: read-out: Inhibitory Activity 2 (IC50 against DYRK2). Here is the method:
(§1) [Inhibition Test on Activity of DYRK Family (DYRK1A, DYRK1B, DYRK2, and […])]
(§2) (Method for Measuring Kinase Activity)
(§3) The kinase activity was measured by mobility shift assay (MSA) method using QuickScout Screening Assist™ MSA (commercially available kit manufactured by Carna Biosciences, Inc.). The substrate of the kinase reaction used was an FITC-labeled DYRKtide peptide included in the kit. An assay buffer [20 mM HEPES, 0.01% Triton X-100™, 2 mM dithiothreitol, pH 7.5] was used to create a substrate mixture solution with a substrate (4 μM), MgCl2 (20 mM), and ATP (DYRK1A: 100 μM; DYRK1B: 200 μM; DYRK2: 40 μM; and DYRK3: 20 μM). In addition, kinases (DYRK1A: manufactured by Carna Biosciences, Inc., Cat. No. 04-130; DYRK1B: manufactured by Carna Biosciences, Inc., Cat. No. 04-131; DYRK2; manufactured by Carna Biosciences, Inc., Cat. No. 04-132; and DYRK3; manufactured by Carna Biosciences, Inc., Cat. No. 04-133) were diluted with the assay buffer to prepare enzyme solutions (DYRK1A: 0.2 ng/μL; DYRK1B: 0.08 ng/μL; DYRK2: 0.04 ng/μL; and DYRK3: 0.25 ng/μL). The 10 mM solution of the test compound in DMSO was further diluted with DMSO to 10 levels of the concentration (0.00003 mM, 0.0001 mM, 0.0003 mM, 0.001 mM, 0.003 mM, 0.01 mM, 0.03 mM, 0.1 mM, 0.3 mM, and 1 mM), each of which was subjected to 25-fold dilution with the assay buffer to obtain a drug solution (4% DMSO solution). 5 μL of the drug solution or a control solution (4% DMSO-assay buffer), 5 μL of the substrate mixture solution, and 10 μL of the enzyme solution were mixed in the wells of a polypropylene 384-well plate and allowed to react at room temperature for 1 hour, and then the reaction was quenched by adding 60 μL of the termination buffer included in the kit. Subsequently, the quantities of the substrates (S) and the phosphorylated substrate (P) in the reaction solution were measured using LabChip EZ Reader II system (manufactured by Caliper Life Sciences) according to the protocol of the assay kit.
(§4) (Method for Evaluating Inhibitory Activity)
(§5) The heights of the peaks of the “substrate” and the “phosphorylated substrate” were expressed as S and P, respectively, and a blank containing the assay buffer instead of the enzyme solution was also measured.
(§6) The inhibition rate (%) of the test compound was calculated according to the following equation:
(§7) Inhibition rate (%)=(1−(C−A)/(B−A))×100
(§8) wherein, A, B, and C represent P/(P+S) of the blank well, P/(P+S) of the control solution well, and P/(P+S) of the compound-containing well, respectively.
(§9) The IC50 value was calculated via a regression analysis of the inhibition rate and the test compound concentration (logarithmic value).
(§10) The inhibiting activities of representative compounds of the present invention are shown against DYRK1A, DYRK1B, DYRK2, and DYRK3 in Tables 7 and 8. The kinase activity inhibitory effect was indicated with the mark *** at an IC50 value of less than 0.01 μM; the mark ** at 0.01 μM or more and less than 0.1 μM; the mark * at 0.1 μM or more and less than 1 μM; and the mark — at 1 μM or more (N.D. indicates not measured).

For test [2], the target named is T2, DYRK1A (Homo sapiens, UniProt Q13627).
T2 construct: purchased Carna Biosciences, Inc. 04-130
Nature of the test: Inhibition test on activity of DYRK family, mobility shift assay (MSA), DYRK1A. Conditions: ATP 100 μM, FITC-labeled DYRKtide peptide substrate, room temperature 1 hour; for IC50: read-out: Inhibitory Activity 1a (IC50 against DYRK1A). On the procedure:
as §1, §2, §3, §4, §5, §6, §7, §8, §9, §10

Test [3] concerns the target T3, DYRK3 (Homo sapiens, UniProt O43781).
T3 construct: purchased Carna Biosciences, Inc. 04-133
T3 sequence (O43781 1-588): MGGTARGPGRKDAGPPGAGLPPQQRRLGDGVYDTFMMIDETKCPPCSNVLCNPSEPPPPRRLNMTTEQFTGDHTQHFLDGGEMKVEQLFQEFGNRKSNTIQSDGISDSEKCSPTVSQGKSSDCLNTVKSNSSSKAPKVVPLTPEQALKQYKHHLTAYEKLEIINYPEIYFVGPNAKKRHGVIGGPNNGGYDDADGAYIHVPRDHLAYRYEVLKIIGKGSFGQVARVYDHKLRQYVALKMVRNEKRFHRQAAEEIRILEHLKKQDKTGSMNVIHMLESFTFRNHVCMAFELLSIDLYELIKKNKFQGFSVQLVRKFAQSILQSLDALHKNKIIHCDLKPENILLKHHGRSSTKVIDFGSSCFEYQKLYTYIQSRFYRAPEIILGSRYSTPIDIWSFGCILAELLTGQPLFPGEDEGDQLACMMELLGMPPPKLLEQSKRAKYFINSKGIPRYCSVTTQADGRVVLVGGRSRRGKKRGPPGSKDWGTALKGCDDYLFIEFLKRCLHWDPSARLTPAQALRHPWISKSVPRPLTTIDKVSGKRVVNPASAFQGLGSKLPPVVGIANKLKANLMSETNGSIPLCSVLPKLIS
As to the kind of experiment: Inhibition test on activity of DYRK family, mobility shift assay (MSA), DYRK3. Conditions: ATP 20 μM, FITC-labeled DYRKtide peptide substrate, room temperature 1 hour; for IC50: read-out: Inhibitory Activity 3 (IC50 against DYRK3). On the procedure:
as §1, §2, §3, §4, §5, §6, §7, §8, §9, §10

The values that follow come from patent US20230138851A1, “NOVEL ALKYNE DERIVATIVES” (CARNA BIOSCIENCES, INC., priority 2020, published 2023).

As usually defined, the IC50 is the concentration that gives 50% inhibition.

Consider `CC#C[C@@H]1[C@H](CC)NC(=O)N1c1nc2c3c(ccc2s1)OCC3` (relative stereo) [Example 73, cis-1-(7,8-dihydrobenzofuro[4,5-d]thiazol-2-yl)-4-ethyl-5-(prop-1-yn-1-yl)imidazolidin-2-one], for which the IC50 in test [1] and in test [3] was 0.1 to 1 µM in each case. In addition, the “Inhibitory Activity 1a (IC50 against DYRK1A)” value (“Inhibitory Activity 1a” below) in test [2] is on record as “* * *”.

Take `CC#C[C@@H]1[C@H](CF)NC(=O)N1c1nc2c3c(ccc2s1)OCC3` (relative stereo) [Example 80, cis-1-(7,8-dihydrobenzofuro[4,5-d]thiazol-2-yl)-4-(fluoromethyl)-5-(prop-1-yn-1-yl)imidazolidin-2-one]: the 50% inhibitory concentration (IC50) in test [1] was no less than 1 µM; in test [2], less than 0.01 µM; in test [3], 0.1 to 1 µM.

Turning to `CC#CC1CNC(=O)N1c1nc2c3c(ccc2s1)OCC3` (single isomer, unassigned) [Example 9, 1-(7,8-dihydrobenzofuro[4,5-d]thiazol-2-yl)-5-(prop-1-yn-1-yl)imidazolidin-2-one], the “Inhibitory Activity 2 (IC50 against DYRK2)” value in test [1] is recorded as “* *”. In test [2], the “Inhibitory Activity 1a” value is reported as “* * *”. Further, the “Inhibitory Activity 3 (IC50 against DYRK3)” value in test [3] is “* *”.

`CC#CC1CNC(=O)N1c1nc2c3c(ccc2s1)OCC3` (single isomer, unassigned) [Example 10, 1-(7,8-dihydrobenzofuro[4,5-d]thiazol-2-yl)-5-(prop-1-yn-1-yl)imidazolidin-2-one]: the IC50 in test [1] is no less than 1 µM; in test [2], 0.1 to 1 µM; in test [3], no less than 1 µM.

Consider `C#CC1CNC(=O)N1c1nc2c3c(ccc2s1)OCC3` (single isomer, unassigned) [Example 13, 1-(7,8-dihydrobenzofuro[4,5-d]thiazol-2-yl)-5-ethynylimidazolidin-2-one], for which, in test [1], the “Inhibitory Activity 2 (IC50 against DYRK2)” value is recorded as “* *”. Besides, in test [2], the “Inhibitory Activity 1a” value was “* * *”. Further, the “Inhibitory Activity 3 (IC50 against DYRK3)” value in test [3] is recorded as “* *”.

For `C#CC1CNC(=O)N1c1nc2c3c(ccc2s1)OCC3` (single isomer, unassigned) [Example 14, 1-(7,8-dihydrobenzofuro[4,5-d]thiazol-2-yl)-5-ethynylimidazolidin-2-one], the IC50 in test [1] and in test [3] was 0.1 to 1 µM throughout. Further, the “Inhibitory Activity 1a” value in test [2] is “* *”.

Regarding `CC#CC1CNC(=O)N1c1nc2c(ccc3ncccc32)s1` (single isomer, unassigned) [Example 34, 5-(prop-1-yn-1-yl)-1-(thiazolo[4,5-f]quinolin-2-yl)imidazolidin-2-one], in test [1], the “Inhibitory Activity 2 (IC50 against DYRK2)” value is “* *”. Also, the “Inhibitory Activity 1a” value in test [2] was “* * *”. For the same molecule, in test [3], the “Inhibitory Activity 3 (IC50 against DYRK3)” value is on record as “* *”.

Regarding `CC#CC1CNC(=O)N1c1nc2c(ccc3ncccc32)s1` (single isomer, unassigned) [Example 36, 5-(prop-1-yn-1-yl)-1-(thiazolo[4,5-f]quinolin-2-yl)imidazolidin-2-one], the IC50 in test [1] and in test [3] was 0.1 to 1 µM each time. In addition, the “Inhibitory Activity 1a” value in test [2] is recorded as “* *”.

Consider `CC#CC1CNC(=O)N1c1nc2c3c(ccc2s1)OCC(C)N3C` (single isomer, unassigned) [Example 48, 1-(-8,9-dimethyl-8,9-dihydro-7H-thiazolo[4′,5′:3,4]benz[1,2-b][1,4]oxazin-2-yl)-5-(prop-1-yn-1-yl)imidazolidin-2-one], for which the IC50 in test [1] was no less than 1 µM; in test [2], 0.1 to 1 µM; in test [3], no less than 1 µM.

Consider `CC#CC1CNC(=O)N1c1nc2c3c(ccc2s1)OCC(C)N3C` (single isomer, unassigned) [Example 49, 1-(-8,9-dimethyl-8,9-dihydro-7H-thiazolo[4′,5′:3,4]benz[1,2-b][1,4]oxazin-2-yl)-5-(prop-1-yn-1-yl)imidazolidin-2-one], for which the IC50 in test [1] is no less than 1 µM; in test [3] it was 0.1 to 1 µM. In addition, the “Inhibitory Activity 1a” value in test [2] is on record as “* * *”.

As for `CC#CC1CNC(=O)N1c1nc2c(ccc3ocnc32)s1` (single isomer, unassigned) [Example 52, 5-(prop-1-yn-1-yl)-1-(thiazolo[5′,4′:5,6]benz[1,2-d]oxazol-7-yl)imidazolidin-2-one], the IC50 in test [1] was no less than 1 µM; in test [3], 0.1 to 1 µM. Besides, the “Inhibitory Activity 1a” value in test [2] is on record as “* * *”.

`CC#CC1CNC(=O)N1c1nc2c(ccc3ocnc32)s1` (single isomer, unassigned) [Example 53, 5-(prop-1-yn-1-yl)-1-(thiazolo[5′,4′:5,6]benz[1,2-d]oxazol-7-yl)imidazolidin-2-one]: the IC50 in test [1] is no less than 1 µM; in test [2], 0.1 to 1 µM; in test [3] it was no less than 1 µM.

In the case of `CC#CC1CNC(=O)N1c1nc2c3c(ccc2s1)OCCO3` (single isomer, unassigned) [Example 58, 1-(7,8-dihydro-[1,4]dioxino[2′,3′:5,6]benz[1,2-d]thiazol-2-yl)-5-(prop-1-yn-1-yl)imidazolidin-2-one], the IC50 in test [1] is 0.1 to 1 µM. For the same molecule, in test [2], the “Inhibitory Activity 1a” value was “* * *”. Also, the “Inhibitory Activity 3 (IC50 against DYRK3)” value in test [3] is “* *”.

As for `CC#CC1CNC(=O)N1c1nc2c3c(ccc2s1)OCCO3` (single isomer, unassigned) [Example 59, 1-(7,8-dihydro-[1,4]dioxino[2′,3′:5,6]benz[1,2-d]thiazol-2-yl)-5-(prop-1-yn-1-yl)imidazolidin-2-one], the concentration for half-maximal inhibition (IC50) in test [1], in test [2] and in test [3] was no less than 1 µM in each case.
